These results are taken from patent EP0201359A2, “Use of phthalide isoquinoline derivatives for treatments inhibiting the formation of lipid peroxides” (MITSUBISHI KASEI CORPORATION, priority 1985, dated 1986).

Data set [1] relates to patients suffering from chronic hepatitis. Kind of data set: Clinical investigation in chronic hepatitis, oral administration for 8 weeks after every diet. The format is in vivo. The settings on record: for improvement of liver functions (patients): 8 weeks. Here is the method:
To patients suffering from chronic hepatitis tritoqualine was administered orally for 8 weeks continuously in a daily dose of 150 or 300 mg after every diet.
Glutamate oxaloacetate transaminase (GOT) and glutamate pyruvate transaminase (GPT) were measured just before the first administration, and 4 and 8 weeks after the first administration.
During the above investigations, there were few cases where slight side effects such as dizziness and nausea, which were suspected to have a relation with the administered drug, appeared : in one case among 65 cases administered in a dose of 150 mg, i.e. 1.5 %; and 8 cases among 137 cases in a dose of 300 mg, i.e. 5.8 %.
When tritoqualine was administered in a dose of 600 mg in the same manner as described above, side effects appeared in 24 cases among 164 cases, i.e. 14.6 %.

A short description of data set [2]: Plasma concentration (AUC) after oral administration to beagle dogs, after fast or after diet. The format is in vivo. Particulars: male, dog, 200 mg/kg, 30 minutes after diet, dogs No. 1-5 and mean in last row, read-out: AUC of tritoqualine concentration in blood for 5 hours. Here is the method:
Tritoqualine was orally administered to male beagle dogs, […], body weight of 9.5 - 12 kg, Hazleton, after fast or 30 minutes after diet in a dose of 200 mg/kg.
Tritoqualine had been subjected to micronization by a jet mill PJM-100NP, NIHON NEWMATIC KOGYO KK, JAPAN (10 % or more of 3 microns or less, 80 % of 3-15 microns and 10 % or less of 15 microns or more; average of 7 microns) or a screen of 100 mesh under. The obtained particles were suspended in aqueous 1 % Tween 80 solution before use. […]
Before the administration, and 0.5, 1, 2, 3 and 5 hours after the administration, 1 ml of blood was taken out of the vein of front leg, placed into a BHA-coated centrifugal tube "VENOJECT" containing heparin, TERMO INC., and centrifuged. Hundred microliters of the thus obtained plasma was placed into a small glass test tube, which had been coated with 1 microgram of BHA. Into the tube were added 190 microliters of noscapine (100 micrograms in ml of acetonitrile) as an internal standard and 10 microliters of acetonitrile. After blending for one minute, the mixture was centrifuged at 3,000 rpm for 5 minutes. The resulting supernatant was subjected to HPLC under the conditions described below.
The quantitative measurements of tritoqualine in the plasma were carried out according to the internal standard method. The area under curve (AUC) was calculated by the trapezoidal rule. […]

For data set [3], the system named is patients with chronic active hepatitis. Particulars: daily dosages 600 to 1600 mg, 13 patients; particularly at 1200-1600 mg/day; cited from earlier work.

Read-outs that look alike come from different tables or passages of the source.

For the compound `CCOc1c(N)c2c(c(OCC)c1OCC)C(C1c3c(cc4c(c3OC)OCO4)CCN1C)OC2=O` (stereo not drawn) [tritoqualine, 7-amino-4,5,6-triethoxy-3-(5,6,7,8-tetrahydro-4-methoxy-6-methyl-1,3-dioxolo(4,5-g)isoquinolin-5-yl)phthalide], the “improvement of liver functions (patients)” value in data set [1] (daily dose 150 mg oral, 27 among 62 patients) is recorded as 44.3%; in data set [1] (daily dose 300 mg oral, 79 among 135 patients) it was 61.2%. Also, the “side effects such as dizziness and nausea (cases)” value in data set [1] (dose of 150 mg, one case among 65 cases) is reported as 1.5%; in data set [1] (dose of 300 mg, 8 cases among 137 cases), 5.8%. The “side effects (cases)” value in data set [1] (dose of 600 mg, 24 cases among 164 cases) was found to be 14.6%. In addition, the AUC was found to be 187 ng·h/mL in data set [2] (100 mesh under 200 mg/kg oral) and 674 ng·h/mL in data set [2] (Micronisation 200 mg/kg oral). In addition, the “fibrosis with cellular infiltration on biopsied liver specimens” value in data set [3] is given as “reduction of fibrosis”. In addition, the liver functions result in data set [3] was “marked improvement”.
